# Source: US12448624B2, “Modified nucleic acid having improved treatment efficacy, and anticancer pharmaceutical composition containing same” (INTEROLIGO CORPORATION, priority 2018, dated 2025)
# {Gem} = gemcitabine nucleotide residue
# Experiments:
# [1] = in vivo; conditions: rat, iv
# Description: Sprague-Dawley male rats were subjected to induced anesthesia with isoflurane, which is an inhalation anesthetic, then a polyethylene (PE) tube (Clay Adams, Becton Dickinson, NJ, USA) was inserted into a carotid artery (for blood collection) and sutured with a suture, followed by fixing an end of the suture behind the neck. During surgery, anesthesia was maintained using ether and about 0.5 mL of physiological saline containing heparin (20 units/mL) was injected to prevent blood from clotting in a cannula. After the surgery is finished, the rats were placed in metabolic cages and allowed to recover completely from the anesthetic condition (4 to 5 hours), respectively. […] 1 and 2 ml/kg of drugs were administered intravenously. […] 5. 15. 30, 45, 60, 120, 360 and 720 minutes after the administration, 0.3 mL of blood was each collected through a […]. […] Then, the blood in the Eppendorf tube was immediately centrifuged, followed by storing the plasma.
# All analytical procedures were implemented under conditions of shielding the tube. That is, all procedures were performed under quantification condition: SRM (selected reaction monitoring) mode (see Table 5 above), fixed phase condition: Hypersil gold C18, 1.9 μm, 100×2.1 mm^2 (Thermo Scientific, Matriks, Oslo, Norway), and mobile phase condition: distilled water (A) containing 0.1% formic acid and acetonitrile (B) (see Table 6 above).
# Metformin as an internal standard substance (IS) was dissolved in acetonitrile to prepare another working solution of 645 ng/mL.
# 150 μL of the internal standard, that is, metformin was added to 50 μL of plasma (645 ng/mL in acetonitrile) and vortexed for 10 minutes, followed by performing centrifugation at 15,000 rpm and […] for 20 minutes. Thereafter, 150 μL of the supernatant was taken and transferred to another Eppendorf tube, and then the organic solvent was dried under a nitrogen stream. Then, 125 μL of tertiary distilled water was added to the dried Eppendorf tube, allowed to be redissolved. Then, the solution was vortexed for 5 minutes, centrifuged at 15,000 rpm and […] for 5 minutes. Thereafter, 100 μL of the supernatant was transferred to the vial for LC-MS/MS, 5 μL of the supernatant was injected and analyzed by LC-MS/MS.
# Values of an area under the plasma concentration-time curve (AUCt) were calculated using a log-linear trapezoidal equation from the plasma concentration-time curves after the administration of drug to the final quantification time (specifically, the linear-trapezoidal equation is used in a section where the plasma concentration is increased, while in another section where plasma concentration is decreased, the trapezoidal equation is used by log transforming the concentration value). After oral administration, the highest plasma concentration (Cmax) and the time to reach the highest plasma concentration (Tmax) were determined from the plasma concentration-time curve. Values of the area (AUCinf) under the plasma concentration till infinite time-time curve were determined using the following equation. A terminal elimination rate constant (γZ) and half-life (t1/2) were determined from a slope of elimination of the plasma concentration. AUinf=AUCt+Ct/γZ(Ct: final quantification concentration, γZ: terminal elimination rate constant)
# [2] = Stability of atelocollagen/collagen disk formulations in rat plasma; type: in vitro ADME; conditions: 37° C.
# Description: Sample treatment, calibration curve creation, and LC-MS/MS analysis conditions are the same as described above.
# Sample treatment was conducted as follows. […] Thereafter, the supernatant was taken and then centrifuged again under the same conditions as above. Then, 5 μL of the concentrate was taken and diluted by 10-fold using the same rat plasma in order to measure a concentration in plasma (“plasma concentration”). […] The above sample treatment was conducted in the same manner as the calibration curve creation, followed by performing sample analysis under the same LC-MS/MS conditions.
# In order to evaluate the stability of the IO101L/atelocollagen disk formulation in rat plasma, experiments were conducted with 5 groups (Groups 1-5) (see Table 12 below). Normal collagen (SK Co.) was used for comparison with atelocollagen.
# [3] = system: patient-derived pancreatic cancer cells; assay: PDX pancreatic cancer mouse model, TUNEL analysis; type: in vivo; conditions: 1 month after implantation
# Description: Untreated control mice were also included for comparison.
# 1 month after the disk implantation, mice were sacrificed, and tissue samples and blood were collected.
# [4] = mouse, in vivo
# Description: Male […]/severe combined immunodeficiency mice, NOD/Shi-scid, IL-2RγKO mice (NOG mice®) (Central Lab Animal Inc., Saeronbio Inc., Seoul) and female nu/nu athymic mice (Orientbio) were maintained in 12 hours light/12 hours dark cycle under pathogen-free conditions. At the time of surgery, 10 new pancreatic tumor specimens stored in the patient's primary tumor (Institutional Examination Committee No. 4-2017-0594) was placed on ice-cooled RPMI medium, PDX SOP of PDTX Cleanbench Department Laboratory Animal Resources (Yonsei Biomedical Research Institute, Seoul) was washed with cold PBS, and non-necrotic fragments were cut into small pieces (2×2×2 mm) to remove blood or lipid portions. […]
# After skin incision in PDX mice, the control (No treatment), Gem-IP (; sol-gel type), IO101-IP (; sol-gel type), IO101/AC disk (2.0 mg/3.0%), IO101-Con/AC (2.0 mg/3.0%) and Gem/atelocollagen disk (0.12 mg/3.0%), respectively, were implanted locally by subcutaneous anesthetic dissection between skin and tumor. A tumor size was measured three times per week by caliper measurement (Mitutoyo, Absolute AOS Digmatic, Kawasaki, Japan), and a volume was calculated as described above. Tumor growth in drug-treated animals was expressed as a tumor growth rate (tumor volume/initial tumor volume) compared to vehicle-treated mice. […]
# [5] = In vitro stability: dFdC and dFdU in plasma by LC-MS/MS; type: in vitro ADME; conditions: rat plasma
# Description: From the chromatogram obtained by the established LC-MS/MS assay method, peak area ratios of dFdC, dFdU and dFdCTP to a peak area of the internal standard substance were estimated, followed by calculating a concentration in the mouse plasma and a concentration in tissues from a previously created calibration curve.
# 1 mL of mouse blood was collected and placed in a 1.5 mL Eppendorf tube containing 10 μL of 10 mg/mL (in DW) tetrahydrouridine (THU). After centrifugation under conditions of 14,000 rpm and 4° C. for 2 minutes using a centrifuge, only plasma was taken and transferred to another vial and stored at −80° C. After transferring 50 μL of plasma to a 1.5 mL amber Eppendorf tube, 150 μL of an internal standard substance (meltform 1.29 μg/mL in ACN) was added and vortexed for 10 minutes. Centrifugation was conducted using a centrifuge under conditions of 14,000 rpm and 4° C. for 20 minutes. In the centrifuged tube, 150 μL of sample was transferred to another 1.5 mL amber Eppendorf tube. An organic solvent was dried using a GeneVac EZ-2 automated evaporation system (GeneVac Ltd., Ipswich, UK). (GeneVac HPLC mode, max temperature 35° C., 1 hr). The organic solvent was reconstituted by adding 125 μL DW to a 1.5 mL dried amber Eppendorf tube. After vortexing for 5 minutes, centrifugation was conducted using a centrifuge under conditions of 14,000 rpm and 4° C. for 5 minutes. The supernatant of the centrifuged solution was added in an amount of 100 μL to each vial for LC-MS/MS using a PTFE (hydrophilic) 0.2 μm syringe filter (Toyo Toshi, Japan). Specifically, 5 μL of the supernatant was injected into each LC-MS/MS.
# Chromatography was performed using an Agilent 1200 series separation module (Agilent Technologies, Waldbronn, Germany). […] An injection volume was 5 μL, a mobile phase was a gradient eluent system [A: 100% ACN, B: 0.1% formic acid in DW], and a total running time was 20 minutes. A calibration range was set to be 20 to 5,000 ng/mL.
# Each sample was treated according to the above 2-1-1 and 2-1-2, and a ratio of dFdC/dFdU in rat plasma was measured in regard to the compound types of (Gem)x-[TGG]m[TTG][TGG]n.
# [6] = system: BxPC3, PANC-1, Miapaca-2, and Capan-1; assay: Cell survival (WST-1) of pancreatic cancer cell lines; type: cell-based; conditions: WST-1, 48 hours, 100 nM to 100 μM, all four pancreatic cancer cell lines
# Description: BxPC3, PANC-1, Miapaca-2, and Capan-1 were cultured as pancreatic cancer cell lines, respectively. When the cells were stable after several subcultures, 1×10^3 cells were seeded in 96 well plates to verify drug effects. On the next day, IO101, IO100, IO100-Con, IO101-Con and Gem at the highest concentration of 100 μM were diluted by 1/10 per each well, and prepared at a concentration of 4 points up to 100 nM. Then, the cells seeding in the 96 well plates were treated using the above prepared variants. After 48 hours, 10 μl of WST-1 solution was added to the wells and incubated in a 37° C. incubator for 1 hour. Subsequently, each sample was measured at 440 nm in a micro plate reader (VERSA Max). After calculation of the measured values, a cell survival rate graph for each treatment concentration was drawn up.
# [7] = system: BxPC3 (pancreatic cancer); assay: Cell proliferation inhibition (MTT), BxPC3; type: cell-based; conditions: MTT assay, 3 days
# Description: (§1) 2.5 to 5.0×10^5 cells/well, which is the cell number defined by cell test to determine the appropriate cell concentration in the pancreatic cancer cell line B x PC3 cell (ATCC, IMDM+10% PBS), were seeded in a 96 well plate and incubated for one day. […] The treated BxPC3 cells were incubated in a 5% CO2 incubator for 3 days, treated with 20 μL of reagent solution for MTT assay (Cell Proliferation KitII, Roche), and then incubated hourly (10 minutes, 30 minutes, 60 minutes), followed by measuring absorbance at 490 nm by a reader through ELISA (See FIGS. 28 and 29).
# (§2) Cell proliferation inhibitory efficacy against other cell lines MD-MBA 231 (breast cancer), Uuh-7 (liver cancer), HT29 (colon cancer) and Mv4-11 (AML) was also verified in the same manner as described above.
# [8] = system: MD-MBA 231 (breast cancer); assay: Cell proliferation inhibition (MTT), MD-MB231; type: cell-based; conditions: MTT assay, 3 days
# Description: as §1, §2
molecule,measurement,setting,value
"Nc1ccn([C@@H]2O[C@H](CO)[C@@H](O)C2(F)F)c(=O)n1 [Gemcitabine, 2,2′-difluorodeoxycytidine]",AUC(0-inf),"[1]; male, Sprague-Dawley, 8 mg/kg",24500 ng·h/mL
same,AUC(0-t),"[1]; male, Sprague-Dawley, 8 mg/kg",23200 ng·h/mL
same,Cmax,"[1]; male, Sprague-Dawley, 8 mg/kg",13300 ± 5640 ng/mL
same,MRT,"[1]; male, Sprague-Dawley, 8 mg/kg",3.48 h
same,Tmax,"[1]; male, Sprague-Dawley, 8 mg/kg",1 min
same,Vd,"[1]; male, Sprague-Dawley, 8 mg/kg",1.15 ± 0.223 L/kg
same,clearance,"[1]; male, Sprague-Dawley, 8 mg/kg",5.59 ± 0.86 mL/min/kg
same,dFdU AUCt,"[1]; male, Sprague-Dawley, 8 mg/kg",265 ± 57.1 µg·min/mL
same,dFdU Cmax,"[1]; male, Sprague-Dawley, 8 mg/kg",477 ± 87.9 ng/mL
same,dFdU Tmax,"[1]; male, Sprague-Dawley, 8 mg/kg",240 (120-360) min
same,half-life,"[1]; male, Sprague-Dawley, 8 mg/kg",2.95 ± 0.475 h
same,concentration at 30 min,"[1]; male, Sprague-Dawley, Gemcitabine blood concentration, 30 minutes",5600 ng/mL
same,concentration at 45 min,"[1]; male, Sprague-Dawley, Gemcitabine blood concentration, 45 minutes",3410 ng/mL
same,concentration at 60 min,"[1]; male, Sprague-Dawley, Gemcitabine blood concentration, 60 minutes",3550 ng/mL
same,concentration at 120 min,"[1]; male, Sprague-Dawley, Gemcitabine blood concentration, 120 minutes",2800 ng/mL
same,"dFdU blood concentration, 1 minute",[1],BLLoQ
same,"dFdU blood concentration, 5 minutes",[1],BLLoQ
same,dFdC Blood concentration,[2]; 2 hours incubation,218 µg/mL
same,"dFdC Blood concentration, supernatant","[2]; supernatant (Ultracell-3K), 2 hours",232 µg/mL
same,apoptosis (TUNEL analysis) in tumor,[3],an apoptosis process was confirmed
same,PLT,[4],684.1 ± 246.3 X1000/μl
(Gem)2-[TGG]1[TTG][TGG]1 [compound 1],dFdC/dFdU ratio,[5],1.76
(Gem)2-[TGG]1[TTG][TGG]2 [compound 2],dFdC/dFdU ratio,[5],2.01
(Gem)2-[TGG]2[TTG][TGG]1 [compound 3],dFdC/dFdU ratio,[5],2.20
(Gem)2-[TGG]2[TTG][TGG]2 [compound 4],dFdC/dFdU ratio,[5],2.61
(Gem)2-[TGG]2[TTG][TGG]3 [compound 5],dFdC/dFdU ratio,[5],2.79
(Gem)2-[TGG]3[TTG][TGG]2 [compound 6],dFdC/dFdU ratio,[5],2.84
(Gem)2-[TGG]3[TTG][TGG]3 [compound 7],dFdC/dFdU ratio,[5],3.29
(Gem)2-[TGG]3[TTG][TGG]4 [compound 8],dFdC/dFdU ratio,[5],3.80
(Gem)2-[TGG]4[TTG][TGG]3 [compound 9],dFdC/dFdU ratio,[5],6.04
"(Gem)2-[TGG]4[TTG][TGG]4 (DNA TGGTGGTGGTGGTTGTGGTGGTGGTGG; two 5' gemcitabine residues, chemistry not fully specified) [compound 10, gemcitabine-containing oligonucleotide variant]",dFdC/dFdU ratio,[5],12.00
same,pancreatic cancer cell growth inhibition (cell survival rate),[6],effectively inhibits pancreatic cancer cell growth in proportion to a drug concentration
same,IC50,[7],8.9 nM
same,IC50,[8],18 nM
"(Gem)2-[TGG]4[TTG][TGG]5 (DNA TGGTGGTGGTGGTTGTGGTGGTGGTGGTGG; DNA, 5' {Gem}-{Gem}, backbone not given here) [compound 11, gemcitabine-containing oligonucleotide variant]",dFdC/dFdU ratio,[5],14.10
same,pancreatic cancer cell growth inhibition (cell survival rate),[6],pancreatic cancer cell growth was effectively inhibited
same,dFdU Tmax,[1],360 min
same,IC50,[7],8.5 nM
same,IC50,[8],15 nM
(Gem)2-[TGG]5[TTG][TGG]4 [compound 12],dFdC/dFdU ratio,[5],13.63
(Gem)2-[TGG]5[TTG][TGG]5 [compound 13],dFdC/dFdU ratio,[5],11.85
(Gem)2-[TGG]5[TTG][TGG]6 [compound 14],dFdC/dFdU ratio,[5],11.59
(Gem)2-[TGG]6[TTG][TGG]5 [compound 15],dFdC/dFdU ratio,[5],13.67
(Gem)2-[TGG]6[TTG][TGG]6 [compound 16],dFdC/dFdU ratio,[5],13.59
